Measurements reported in patent US9492471B2, “Methods of treating a disease or disorder associated with Bruton'S Tyrosine Kinase” (Celgene Avilomics Research, Inc., priority 2013, dated 2016).
Read-outs that look alike come from different tables or passages of the source.

Legend:
Experiment in all cases: HotSpot kinase profiling
Assay type in all cases: biochemical
PKCepsilon = target: T1, PKCepsilon (Homo sapiens, UniProt Q02156)
T1 construct: purchased Reaction Biology Corp
T1 sequence (Q02156 1-737): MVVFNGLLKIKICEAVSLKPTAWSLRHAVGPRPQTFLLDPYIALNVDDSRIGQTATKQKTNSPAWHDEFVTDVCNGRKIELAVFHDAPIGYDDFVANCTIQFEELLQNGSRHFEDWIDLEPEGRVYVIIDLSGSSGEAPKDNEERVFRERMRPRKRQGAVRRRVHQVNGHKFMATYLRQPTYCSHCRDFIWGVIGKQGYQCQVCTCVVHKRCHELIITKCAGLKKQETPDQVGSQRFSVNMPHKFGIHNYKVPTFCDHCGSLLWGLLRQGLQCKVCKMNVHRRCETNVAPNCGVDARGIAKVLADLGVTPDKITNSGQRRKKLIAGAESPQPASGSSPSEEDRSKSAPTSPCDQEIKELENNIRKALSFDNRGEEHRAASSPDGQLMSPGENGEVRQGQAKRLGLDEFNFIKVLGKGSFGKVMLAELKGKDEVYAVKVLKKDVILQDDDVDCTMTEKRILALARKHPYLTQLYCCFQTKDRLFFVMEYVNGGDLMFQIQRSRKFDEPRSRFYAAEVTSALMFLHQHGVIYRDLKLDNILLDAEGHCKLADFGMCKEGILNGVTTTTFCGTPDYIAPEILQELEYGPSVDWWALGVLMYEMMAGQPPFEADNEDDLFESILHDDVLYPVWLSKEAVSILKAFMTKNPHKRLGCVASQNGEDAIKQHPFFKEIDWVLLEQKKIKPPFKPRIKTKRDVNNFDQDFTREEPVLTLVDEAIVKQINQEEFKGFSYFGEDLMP
Outline: (§1)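 Radiometric kinase assay with P81 filter capture; each kinase was added to fresh substrate plus cofactors in reaction buffer and incubated 2 h at room temperature. Unreacted phosphate was washed off with 0.1% phosphoric acid before detection; percent inhibition is relative to DMSO control, averaged over replicates.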

NLK = target: T2, NLK (Homo sapiens, UniProt Q9UBE8)
T2 construct: purchased Reaction Biology Corp
T2 sequence (Q9UBE8 1-527): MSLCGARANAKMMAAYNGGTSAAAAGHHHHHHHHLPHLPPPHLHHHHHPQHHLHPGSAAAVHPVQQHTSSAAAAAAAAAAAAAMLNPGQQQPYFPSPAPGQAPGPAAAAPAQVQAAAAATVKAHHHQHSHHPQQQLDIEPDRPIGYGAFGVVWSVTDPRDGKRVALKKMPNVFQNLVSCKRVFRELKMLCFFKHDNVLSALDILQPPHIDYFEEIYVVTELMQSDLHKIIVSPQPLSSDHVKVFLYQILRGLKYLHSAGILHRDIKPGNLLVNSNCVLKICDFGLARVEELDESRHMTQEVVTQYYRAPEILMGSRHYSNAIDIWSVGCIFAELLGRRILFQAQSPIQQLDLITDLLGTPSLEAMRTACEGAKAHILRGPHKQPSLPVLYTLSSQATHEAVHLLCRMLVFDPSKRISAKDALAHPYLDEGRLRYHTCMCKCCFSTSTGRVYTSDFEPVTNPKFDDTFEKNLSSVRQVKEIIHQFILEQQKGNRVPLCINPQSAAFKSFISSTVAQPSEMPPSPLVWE
Outline: as §1

GRK6 = target: T3, GRK6 (Homo sapiens, UniProt P43250)
T3 construct: purchased Reaction Biology Corp
T3 sequence (P43250 whole entry): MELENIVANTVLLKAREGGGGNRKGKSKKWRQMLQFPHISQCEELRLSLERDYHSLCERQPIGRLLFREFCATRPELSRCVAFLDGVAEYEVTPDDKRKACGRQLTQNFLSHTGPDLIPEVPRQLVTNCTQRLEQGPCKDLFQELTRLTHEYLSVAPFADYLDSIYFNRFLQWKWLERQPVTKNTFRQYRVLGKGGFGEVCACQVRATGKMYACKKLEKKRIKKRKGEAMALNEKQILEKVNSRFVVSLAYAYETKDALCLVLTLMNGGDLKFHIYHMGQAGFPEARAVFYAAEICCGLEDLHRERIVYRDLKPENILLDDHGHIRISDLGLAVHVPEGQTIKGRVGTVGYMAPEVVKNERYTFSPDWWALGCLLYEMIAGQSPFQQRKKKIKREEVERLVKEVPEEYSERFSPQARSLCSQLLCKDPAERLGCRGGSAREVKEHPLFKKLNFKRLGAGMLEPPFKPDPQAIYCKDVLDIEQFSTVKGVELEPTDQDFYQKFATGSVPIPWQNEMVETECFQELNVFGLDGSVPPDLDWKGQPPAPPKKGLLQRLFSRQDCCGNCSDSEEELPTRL
Outline: as §1

CDK1/cyclin B = target: T4, CDK1/cyclin B (Homo sapiens, UniProt P06493)
T4 construct: purchased Reaction Biology Corp
T4 sequence (P06493 whole entry): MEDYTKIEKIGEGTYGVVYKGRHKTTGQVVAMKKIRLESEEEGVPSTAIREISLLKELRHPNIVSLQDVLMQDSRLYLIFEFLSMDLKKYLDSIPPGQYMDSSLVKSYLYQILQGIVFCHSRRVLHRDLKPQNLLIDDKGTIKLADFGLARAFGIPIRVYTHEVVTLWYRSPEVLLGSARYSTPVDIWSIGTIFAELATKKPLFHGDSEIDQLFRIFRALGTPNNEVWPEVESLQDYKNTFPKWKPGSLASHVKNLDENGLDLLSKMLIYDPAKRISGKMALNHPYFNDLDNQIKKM
T4 sequence (P14635 whole entry partner): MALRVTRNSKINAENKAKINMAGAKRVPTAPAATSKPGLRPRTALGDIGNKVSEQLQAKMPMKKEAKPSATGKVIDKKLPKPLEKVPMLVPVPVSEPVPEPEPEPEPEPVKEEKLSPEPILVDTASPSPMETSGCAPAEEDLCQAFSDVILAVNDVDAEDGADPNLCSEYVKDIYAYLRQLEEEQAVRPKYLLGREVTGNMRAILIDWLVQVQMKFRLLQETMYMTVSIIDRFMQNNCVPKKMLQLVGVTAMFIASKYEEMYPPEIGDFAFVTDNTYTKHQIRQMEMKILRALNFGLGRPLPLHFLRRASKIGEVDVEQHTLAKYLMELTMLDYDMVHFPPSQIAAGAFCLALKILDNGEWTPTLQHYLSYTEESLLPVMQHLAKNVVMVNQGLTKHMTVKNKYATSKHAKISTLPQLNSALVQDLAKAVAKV
Outline: as §1

ALK2/ACVR1 = target: T5, ALK2/ACVR1 (Homo sapiens, UniProt Q04771)
T5 construct: purchased Reaction Biology Corp
T5 sequence (Q04771 21-509): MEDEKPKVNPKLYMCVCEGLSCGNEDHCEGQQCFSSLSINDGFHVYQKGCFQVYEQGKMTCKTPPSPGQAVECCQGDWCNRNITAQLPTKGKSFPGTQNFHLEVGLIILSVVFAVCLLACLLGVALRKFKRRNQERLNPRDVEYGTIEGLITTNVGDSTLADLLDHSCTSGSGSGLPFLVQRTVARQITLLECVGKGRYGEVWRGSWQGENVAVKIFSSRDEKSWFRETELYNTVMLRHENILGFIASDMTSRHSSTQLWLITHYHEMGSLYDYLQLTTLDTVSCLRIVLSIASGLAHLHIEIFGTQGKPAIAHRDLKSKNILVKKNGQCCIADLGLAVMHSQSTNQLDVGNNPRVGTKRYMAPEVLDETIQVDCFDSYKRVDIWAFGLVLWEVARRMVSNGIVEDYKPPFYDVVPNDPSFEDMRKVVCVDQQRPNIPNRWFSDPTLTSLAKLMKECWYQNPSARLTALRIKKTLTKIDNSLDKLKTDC
Outline: as §1

CDK4/cyclin D3 = target: T6, CDK4/cyclin D3 (Homo sapiens, UniProt P11802)
T6 construct: purchased Reaction Biology Corp
T6 sequence (P11802 whole entry): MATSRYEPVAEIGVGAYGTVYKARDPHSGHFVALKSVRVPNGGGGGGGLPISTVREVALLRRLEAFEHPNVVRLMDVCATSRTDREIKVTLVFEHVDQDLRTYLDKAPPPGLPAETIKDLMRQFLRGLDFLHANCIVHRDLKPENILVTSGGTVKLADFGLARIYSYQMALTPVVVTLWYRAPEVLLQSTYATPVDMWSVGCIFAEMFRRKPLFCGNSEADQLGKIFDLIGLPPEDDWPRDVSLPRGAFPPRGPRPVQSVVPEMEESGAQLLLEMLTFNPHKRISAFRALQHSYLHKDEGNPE
T6 sequence (P30281 whole entry partner): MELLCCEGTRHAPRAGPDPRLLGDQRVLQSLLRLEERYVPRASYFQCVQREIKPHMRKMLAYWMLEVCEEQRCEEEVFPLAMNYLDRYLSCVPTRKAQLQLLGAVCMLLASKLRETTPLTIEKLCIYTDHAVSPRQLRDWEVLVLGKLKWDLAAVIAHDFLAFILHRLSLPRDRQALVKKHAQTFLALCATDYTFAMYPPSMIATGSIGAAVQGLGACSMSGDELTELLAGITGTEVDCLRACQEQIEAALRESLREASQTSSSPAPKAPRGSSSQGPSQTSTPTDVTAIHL
Outline: as §1

YES/YES1 = target: T7, YES/YES1 (Homo sapiens, UniProt P07947)
T7 construct: purchased Reaction Biology Corp
T7 sequence (P07947 whole entry): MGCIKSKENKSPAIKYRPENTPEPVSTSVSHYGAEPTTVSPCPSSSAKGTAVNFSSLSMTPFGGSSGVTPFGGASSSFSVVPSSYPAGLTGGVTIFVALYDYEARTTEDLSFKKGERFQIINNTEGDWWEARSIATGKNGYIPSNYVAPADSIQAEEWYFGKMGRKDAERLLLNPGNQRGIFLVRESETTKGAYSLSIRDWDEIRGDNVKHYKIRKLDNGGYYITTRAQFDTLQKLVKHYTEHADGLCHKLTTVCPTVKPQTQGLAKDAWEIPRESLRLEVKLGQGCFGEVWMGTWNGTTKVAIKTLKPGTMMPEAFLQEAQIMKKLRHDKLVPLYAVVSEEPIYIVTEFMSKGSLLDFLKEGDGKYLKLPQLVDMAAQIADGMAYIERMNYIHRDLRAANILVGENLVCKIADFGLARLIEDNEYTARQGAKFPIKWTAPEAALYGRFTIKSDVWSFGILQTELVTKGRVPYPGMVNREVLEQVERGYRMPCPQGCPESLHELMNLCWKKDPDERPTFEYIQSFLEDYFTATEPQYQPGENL
Outline: as §1

c-Kit = target: T8, c-Kit (Homo sapiens, UniProt P10721)
T8 construct: purchased Reaction Biology Corp
T8 sequence (P10721 26-976): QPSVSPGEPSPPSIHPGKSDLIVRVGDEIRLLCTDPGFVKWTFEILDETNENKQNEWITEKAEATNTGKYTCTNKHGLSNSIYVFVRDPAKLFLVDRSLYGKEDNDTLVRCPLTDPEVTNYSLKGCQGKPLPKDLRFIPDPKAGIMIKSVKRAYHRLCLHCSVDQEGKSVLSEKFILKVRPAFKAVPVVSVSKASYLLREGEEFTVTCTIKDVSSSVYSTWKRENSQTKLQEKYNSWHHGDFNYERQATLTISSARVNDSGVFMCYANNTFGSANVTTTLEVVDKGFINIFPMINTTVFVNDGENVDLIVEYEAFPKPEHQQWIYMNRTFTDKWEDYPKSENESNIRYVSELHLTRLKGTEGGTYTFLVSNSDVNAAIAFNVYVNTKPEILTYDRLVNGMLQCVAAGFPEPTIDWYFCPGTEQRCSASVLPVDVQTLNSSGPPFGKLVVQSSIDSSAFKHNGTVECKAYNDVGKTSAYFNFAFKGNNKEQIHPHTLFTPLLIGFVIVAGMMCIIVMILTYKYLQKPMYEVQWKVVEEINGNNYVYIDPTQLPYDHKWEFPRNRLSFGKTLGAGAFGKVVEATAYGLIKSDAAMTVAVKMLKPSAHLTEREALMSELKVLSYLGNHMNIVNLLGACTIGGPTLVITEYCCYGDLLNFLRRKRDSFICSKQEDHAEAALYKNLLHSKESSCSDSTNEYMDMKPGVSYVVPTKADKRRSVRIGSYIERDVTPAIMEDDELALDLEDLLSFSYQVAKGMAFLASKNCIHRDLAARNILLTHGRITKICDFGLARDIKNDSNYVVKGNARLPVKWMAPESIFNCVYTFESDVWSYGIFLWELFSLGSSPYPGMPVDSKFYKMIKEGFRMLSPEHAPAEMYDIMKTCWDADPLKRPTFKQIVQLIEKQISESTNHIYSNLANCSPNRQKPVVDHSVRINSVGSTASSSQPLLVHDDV
Outline: as §1

PIM2 = target: T9, PIM2 (Homo sapiens, UniProt Q9P1W9)
T9 construct: purchased Reaction Biology Corp
T9 sequence (Q9P1W9 whole entry): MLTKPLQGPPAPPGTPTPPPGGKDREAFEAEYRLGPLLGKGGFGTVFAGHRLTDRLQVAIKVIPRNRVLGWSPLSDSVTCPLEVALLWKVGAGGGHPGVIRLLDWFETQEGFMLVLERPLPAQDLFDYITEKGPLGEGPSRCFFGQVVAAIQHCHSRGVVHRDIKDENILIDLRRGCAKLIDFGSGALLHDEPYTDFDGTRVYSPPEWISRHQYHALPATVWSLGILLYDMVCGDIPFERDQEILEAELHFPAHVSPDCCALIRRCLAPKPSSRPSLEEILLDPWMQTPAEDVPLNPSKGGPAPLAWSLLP
Outline: as §1

[1] = read-out: % Enzyme Activity (relative to DMSO controls) Run 1
[2] = read-out: % Enzyme Activity (relative to DMSO controls) Run 2

C=CC(=O)Nc1cccc(Nc2nc(Nc3ccc(OCCOC)c(F)c3)ncc2F)c1 [Compound 2]
inhibition at 3 µM (PKCepsilon): 6.29% | remaining activity at 3 µM (PKCepsilon; [1]): 93.2% | remaining activity at 3 µM (PKCepsilon; [2]): 94.2% | inhibition at 3 µM (NLK): -1.29% | remaining activity at 3 µM (NLK; [1]): 99.6% | remaining activity at 3 µM (NLK; [2]): 103% | inhibition at 3 µM (GRK6): -3.03% | remaining activity at 3 µM (GRK6; [1]): 102% | remaining activity at 3 µM (GRK6; [2]): 104% | inhibition at 3 µM (CDK1/cyclin B): 12.9% | remaining activity at 3 µM (CDK1/cyclin B; [1]): 87.2% | remaining activity at 3 µM (CDK1/cyclin B; [2]): 87% | remaining activity at 3 µM (ALK2/ACVR1; [1]): 385% | remaining activity at 3 µM (ALK2/ACVR1; [2]): 385% | inhibition at 3 µM (CDK4/cyclin D3): 5.15% | remaining activity at 3 µM (CDK4/cyclin D3; [1]): 95.5% | remaining activity at 3 µM (CDK4/cyclin D3; [2]): 94.2% | inhibition at 3 µM (YES/YES1): 81.5% | remaining activity at 3 µM (YES/YES1; [1]): 18.7% | remaining activity at 3 µM (YES/YES1; [2]): 18.3% | inhibition at 3 µM (c-Kit): 21.5% | remaining activity at 3 µM (c-Kit; [1]): 77.5% | remaining activity at 3 µM (c-Kit; [2]): 79.5% | inhibition at 3 µM (PIM2): -32.5% | remaining activity at 3 µM (PIM2; [1]): 136% | remaining activity at 3 µM (PIM2; [2]): 129%
